According to PubChem BioAssay AID1918957 (Molecular Pharmacology Branch, DTP, NCI, 2023):
pIC50: −log10 of the molar value.

System: NCI-H1876 complex spheroid viability
Experiment: Anticancer human tumor NCI-H1876 cell line growth inhibition [LSD1];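 also: spheroids exposed to compounds for one week before readout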;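 as to viability, T/C: 100% = DMSO vehicle-treated spheroids so lower means fewer viable cells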
Details: for pIC50: curve of first compound; for viability, T/C: stronger effect = lower value
Source text: Multicellular complex tumor spheroid response to LSD1 Inhibitor Iadademstat in combination with a variety of drugs and investigational agents in selected tumor cell lines
The current study was undertaken to assess response to LSD1 inhibitors in combination with standard-of-care drugs and investigational agents in solid tumor complex spheroid models as well as in the K-562 leukemia. Complex spheroids include a stromal component modeled by human endothelial cells (HUVEC) and fibroblasts modeled by human mesenchymal stem cells (MSCs). The concentration ranges selected for each drug and investigational agent were based upon clinically achievable concentrations if the clinical Cmax of the agent was known.
Compounds. The drugs and investigational agents used in this study are listed on Table 1. All of the agents used, including staurosporine (NSC755774) and gemcitabine (NSC613327), were obtained from the Developmental Therapeutics Program, NCI. FDA-approved anticancer drugs are available from the NCI at http://dtp.nci.nih.gov/branches/dscb/oncology_drugset_explanation.html. Drugs and investigational agents were >95% pure by proton nuclear magnetic resonance (NMR) and liquid chromatography/mass spectrometry (LC/MS). Stock solutions were prepared at 400x in DMSO, stored at -70 degrees C, and diluted in fresh medium prior to their use. The final concentration of DMSO in cell culture wells never exceeded 0.25% (v/v). The FDA-approved anticancer drug set is available from the Developmental Therapeutics Program at https://dtp.cancer.gov/organization/dscb/obtaining/available_plates.htm. All drugs and investigational agents were tested over a range starting from a high concentration at or near the clinical Cmax and decreasing in half-log increments. If the clinical Cmax for an agent had not been determined, the highest concentration tested was 10 microM.
Cell Lines. The patient-derived cancer cell (PDC) lines: 292921-168-R-J2-PDC, K24384-001-R-PDC, and 521955-158-R2-J5-PDC pancreatic carcinomas, 556581-035-R-J1 ovarian carcinoma, 324938-238-R-J1-PDC, 855422-203-R-J1-PDC and 883617-216-R-J1-PDC urothelial bladder carcinomas, 743489-274-T-PDC renal cell carcinoma, 138582-R-J1 Merkel cell tumor, K60290-347-R-J1 and K57222-313-R-J1-PDC glioblastomas, 653999-131-R-J2-PDC, LG0703-F948-PDC, and 349418-098-R-PDC non-small cell lung carcinomas, 885512-296-R-J2-PDC, 171881-019-R-J1-PDC breast carcinomas and 186277-243-T-J2-PDC and 233499-124-R-J2-PDC colon carcinomas were obtained from the NCI Patient-Derived Models Repository (PDMR, https://pdmr.cancer.gov). The established cell lines NCI/ADR-RES (RRID:CVCL_14520 and OVCAR-5 (RRID:CVCL_1628) ovarian carcinomas, 786-O (RRID:CVCL_1051) and A498 (RRID:CVCL_A498) renal cell carcinoma, NCI-H211 (ATCC, cat. CRL-5824; RRID:CVCL_1529), NCI-H196 (ATCC, cat. CRL-5823, RRID:CVCL_1509), SW 1271 (ATCC, cat. CRL-2177, RRID:CVCL_1716) and NCI-H1876 (ATCC, cat. CRL-5902, RRID:CVCL_1503) small cell lung carcinomas, MDA-MB-231 (RRID:CVCL_0062) and MDA-MB-468 (RRID:CVCL_0419)breast carcinomas (10-12). Pooled donor human umbilical vein endothelial cells (HUVEC, Lonza, cat. CC-2519) and human mesenchymal stem cells (hMSC, Lonza, cat. PT-2501) were purchased from Lonza (Walkersville, MD).
Cell Culture. All cells were maintained in an incubator at 37 degrees C and 5% CO2 with 95% humidity. The PDC lines were cultured according to standard operating procedures established by the NCI PDMR (https://pdmr.cancer.gov). Briefly all PDCs were thawed and cultured in Matrigel-coated flasks prepared with a working solution of 1X Ham's F-12 nutrient mix, without supplementation (Invitrogen, Waltham, MA, cat. 11765054), 100 U/mL penicillin-streptomycin (Invitrogen, cat. 15140122), and 2.5% Matrigel (Corning Inc., Corning, NY, cat. 354248) for the first three passages. […]

[1] = second compound 0.1 µM, first compound 0.000949 µM
[2] = second compound 0.1 µM, first compound 0.003 µM
[3] = second compound 0.1 µM, first compound 0.00949 µM
[4] = second compound 0.1 µM, first compound 0.03 µM
[5] = second compound 0.1 µM, first compound 0.0949 µM
[6] = second compound 0.1 µM, first compound 0.3 µM
[7] = second compound 0.316 µM, first compound 0.000949 µM
[8] = second compound 0.316 µM, first compound 0.003 µM
[9] = second compound 0.316 µM, first compound 0.00949 µM
[10] = second compound 0.316 µM, first compound 0.03 µM
[11] = second compound 0.316 µM, first compound 0.0949 µM
[12] = second compound 0.316 µM, first compound 0.3 µM
[13] = second compound 1 µM, first compound 0.000949 µM
[14] = second compound 1 µM, first compound 0.003 µM
[15] = second compound 1 µM, first compound 0.00949 µM
[16] = second compound 1 µM, first compound 0.03 µM
[17] = second compound 1 µM, first compound 0.0949 µM
[18] = second compound 1 µM, first compound 0.3 µM
[19] = second compound 3.16 µM, first compound 0.000949 µM
[20] = second compound 3.16 µM, first compound 0.003 µM
[21] = second compound 3.16 µM, first compound 0.00949 µM
[22] = second compound 3.16 µM, first compound 0.03 µM
[23] = second compound 3.16 µM, first compound 0.0949 µM
[24] = second compound 3.16 µM, first compound 0.3 µM
[25] = second compound 10 µM, first compound 0.000949 µM
[26] = second compound 10 µM, first compound 0.003 µM
[27] = second compound 10 µM, first compound 0.00949 µM
[28] = second compound 10 µM, first compound 0.03 µM
[29] = second compound 10 µM, first compound 0.0949 µM
[30] = second compound 10 µM, first compound 0.3 µM

Compound: CCc1c2c(nc3ccc(O)cc13)-c1cc3c(c(=O)n1C2)COC(=O)[C@]3(O)CC + NC1CC1c1ccc(-c2cccc(O)c2)cc1
- pIC50 (second compound 0.1 µM): > 9.02
- pIC50 (second compound 0.316 µM): > 9.02
- pIC50 (second compound 1 µM): > 9.02
- pIC50 (second compound 3.16 µM): > 9.02
- pIC50 (second compound 10 µM): > 9.02
- viability, T/C [1]: 5.07%
- viability, T/C [2]: 3.61%
- viability, T/C [3]: 1.59%
- viability, T/C [4]: 0.3%
- viability, T/C [5]: 0.22%
- viability, T/C [6]: 0.31%
- viability, T/C [7]: 5.4%
- viability, T/C [8]: 3.71%
- viability, T/C [9]: 1.52%
- viability, T/C [10]: 0.19%
- viability, T/C [11]: 0.15%
- viability, T/C [12]: 0.25%
- viability, T/C [13]: 5.18%
- viability, T/C [14]: 3.15%
- viability, T/C [15]: 1.5%
- viability, T/C [16]: 0.39%
- viability, T/C [17]: 0.6%
- viability, T/C [18]: 0.3%
- viability, T/C [19]: 5.73%
- viability, T/C [20]: 3.61%
- viability, T/C [21]: 1.99%
- viability, T/C [22]: 0.43%
- viability, T/C [23]: 0.32%
- viability, T/C [24]: 0.32%
- viability, T/C [25]: 6.65%
- viability, T/C [26]: 4.79%
- viability, T/C [27]: 3.56%
- viability, T/C [28]: 0.81%
- viability, T/C [29]: 0.56%
- viability, T/C [30]: 0.86%

Compound: Nc1ccn(C2OC(CO)C(O)C2(F)F)c(=O)n1 (stereo not given) + NC1CC1c1ccc(-c2cccc(O)c2)cc1
- pIC50 (second compound 0.1 µM): 8.20
- pIC50 (second compound 0.316 µM): 8.21
- pIC50 (second compound 1 µM): 8.20
- pIC50 (second compound 3.16 µM): 8.20
- pIC50 (second compound 10 µM): 8.16
- viability, T/C [1]: 104%
- viability, T/C [2]: 93.9%
- viability, T/C [3]: 24.8%
- viability, T/C [4]: 9.9%
- viability, T/C [5]: 8.25%
- viability, T/C [6]: 7.07%
- viability, T/C [7]: 103%
- viability, T/C [8]: 91.5%
- viability, T/C [9]: 26%
- viability, T/C [10]: 10.9%
- viability, T/C [11]: 7.72%
- viability, T/C [12]: 7.02%
- viability, T/C [13]: 108%
- viability, T/C [14]: 87.2%
- viability, T/C [15]: 28.7%
- viability, T/C [16]: 9.78%
- viability, T/C [17]: 8.57%
- viability, T/C [18]: 7.79%
- viability, T/C [19]: 104%
- viability, T/C [20]: 87%
- viability, T/C [21]: 29.9%
- viability, T/C [22]: 10.1%
- viability, T/C [23]: 8.03%
- viability, T/C [24]: 7.36%
- viability, T/C [25]: 101%
- viability, T/C [26]: 91.4%
- viability, T/C [27]: 34%
- viability, T/C [28]: 13.2%
- viability, T/C [29]: 10.4%
- viability, T/C [30]: 11.8%

Compound: O=C(c1cc(Cc2n[nH]c(=O)c3ccccc23)ccc1F)N1CCN(C(=O)C2CC2)CC1 + NC1CC1c1ccc(-c2cccc(O)c2)cc1
- pIC50 (second compound 0.1 µM): 5.21
- pIC50 (second compound 0.316 µM): 5.21
- pIC50 (second compound 1 µM): 5.20
- pIC50 (second compound 3.16 µM): 5.19
- pIC50 (second compound 10 µM): 5.19
- viability, T/C (second compound 0.1 µM, first compound 0.0316 µM): 101%
- viability, T/C (second compound 0.1 µM, first compound 0.1 µM): 99.9%
- viability, T/C (second compound 0.1 µM, first compound 0.316 µM): 98.2%
- viability, T/C (second compound 0.1 µM, first compound 1 µM): 90.3%
- viability, T/C (second compound 0.1 µM, first compound 3.16 µM): 68.3%
- viability, T/C (second compound 0.1 µM, first compound 10 µM): 36.9%
- viability, T/C (second compound 0.316 µM, first compound 0.0316 µM): 103%
- viability, T/C (second compound 0.316 µM, first compound 0.1 µM): 94.9%
- viability, T/C (second compound 0.316 µM, first compound 0.316 µM): 97.7%
- viability, T/C (second compound 0.316 µM, first compound 1 µM): 88.3%
- viability, T/C (second compound 0.316 µM, first compound 3.16 µM): 66.8%
- viability, T/C (second compound 0.316 µM, first compound 10 µM): 38%
- viability, T/C (second compound 1 µM, first compound 0.0316 µM): 106%
- viability, T/C (second compound 1 µM, first compound 0.1 µM): 99.5%
- viability, T/C (second compound 1 µM, first compound 0.316 µM): 98.3%
- viability, T/C (second compound 1 µM, first compound 1 µM): 88.2%
- viability, T/C (second compound 1 µM, first compound 3.16 µM): 70.2%
- viability, T/C (second compound 1 µM, first compound 10 µM): 36.7%
- viability, T/C (second compound 3.16 µM, first compound 0.0316 µM): 102%
- viability, T/C (second compound 3.16 µM, first compound 0.1 µM): 96.9%
- viability, T/C (second compound 3.16 µM, first compound 0.316 µM): 101%
- viability, T/C (second compound 3.16 µM, first compound 1 µM): 88.4%
- viability, T/C (second compound 3.16 µM, first compound 3.16 µM): 72%
- viability, T/C (second compound 3.16 µM, first compound 10 µM): 36.3%
- viability, T/C (second compound 10 µM, first compound 0.0316 µM): 99.5%
- viability, T/C (second compound 10 µM, first compound 0.1 µM): 94.1%
- viability, T/C (second compound 10 µM, first compound 0.316 µM): 93.2%
- viability, T/C (second compound 10 µM, first compound 1 µM): 82%
- viability, T/C (second compound 10 µM, first compound 3.16 µM): 69.7%
- viability, T/C (second compound 10 µM, first compound 10 µM): 38.6%
